The conditions of series [1]: cited from earlier work.
For another series, the system named is Candida albicans. Nature of the series: Antifungal activity on Sabouraud agar medium, MIC and FIC index (Test Examples 1 and 2). The class given is cell-based. The following applies: for MIC: Candida albicans, 48 h, read-out: Minimum inhibitory concentration (MIC); for FIC index obtained by the combination of amorolfine hydrochloride with another medicine: Test Example 1, amorolfine hydrochloride + medicine at mass ratio 1:1. The procedure: (§1) Amorolfine hydrochloride and each specimen (hereinafter referred to as “medicine”) at a mass ratio of 1:1 were dissolved in dimethyl sulfoxide (DMSO). Two-fold dilution series were prepared with DMSO. In the determination of the antifungal activity, the medicine and the medium were mixed together at a ratio of 1:99.
Sabouraud agar medium (Eiken) was used as a susceptibility determination medium. A microbe suspension containing 10^6 spores/mL of Candida albicans or about 10^6 conidia/mL of ringworm fungus was prepared. 5 μl of the suspension was inoculated on the Sabouraud agar medium containing the medicine with a micro-planter (a product of Sakuma Seisakusho). Candida albicans was cultured for 2 days and the tinea was cultured for 7 days.
The effect obtained by the combination was judged on the basis of the following standards (FIC index): • >2: antagonism • 2>and 1<: additive action • 1>: potentiation
(1) Amorolfine hydrochloride and each specimen (hereinafter referred to as “medicine”) at a mass ratio of 100:1 to 1:100 were dissolved in dimethyl sulfoxide (DMSO). Two-fold dilution series were prepared with DMSO. In the determination of the antifungal activity, the medicine and the medium were mixed together at a ratio of 1:99.
(2) Amorolfine hydrochloride and each specimen (hereinafter referred to as “medicine”) at a mass ratio of 1:3 to 3:1 were dissolved in dimethyl sulfoxide (DMSO). Two-fold dilution series were prepared with DMSO. In the determination of the antifungal activity, the medicine and the medium were mixed together at a ratio of 1:99.
Sabouraud agar medium (Eiken) was used as a susceptibility determination medium. A microbe suspension containing 10^6 spores/mL of Candida albicans or about 10^6 conidia/mL of each of two kinds of ringworm fungus was prepared. 5 μl of the suspension was inoculated on the Sabouraud agar medium with a micro-planter (a product of Sakuma Seisakusho). Candida albicans was cultured for 2 days and the Tinea fungus was cultured for 7 days.

For series [2] the following is noted: cited from earlier work. The source holds these as a separate data set.
The conditions of series [3]: cited from earlier work. This is another data set of the same source.
The conditions of series [4]: rats, oral; administration from before the pregnancy to the lactation period or perinatal period/lactation period; cited from earlier work.
In series [5] the test system is Trichophyton mentagrophytes. Nature of the series: Antifungal activity on Sabouraud agar medium, MIC and FIC index (Test Examples 1 and 2). It is filed as cell-based. Particulars: for MIC: Trichophyton mentagrophytes, 168 h, read-out: Minimum inhibitory concentration (MIC); for FIC index obtained by the combination of amorolfine hydrochloride with another medicine: Test Example 1, amorolfine hydrochloride + medicine at mass ratio 1:1. The method, then: as §1
(§2) Sabouraud agar medium (Eiken) was used as a susceptibility determination medium. A microbe suspension containing 10^6 spores/mL of Candida albicans or about 10^6 conidia/mL of ringworm fungus was prepared. 5 μl of the suspension was inoculated on the Sabouraud agar medium containing the medicine with a micro-planter (a product of Sakuma Seisakusho). Candida albicans was cultured for 2 days and the tinea was cultured for 7 days. […]

The next series deals with Trichophyton rubrum. The description is as above. The class given is cell-based. Particulars: for MIC: Trichophyton rubrum, 168 h, read-out: Minimum inhibitory concentration (MIC); for FIC index obtained by the combination of amorolfine hydrochloride with another medicine: Test Example 1, amorolfine hydrochloride + medicine at mass ratio 1:1. The method, then:
as §1, §2

Series [6] has as its system Trichophyton mentagrophytes TIMM 1189. Nature of the series: Tinea infection model of guinea pigs, culture test (Test Example 3). It is filed as in vivo. The following applies: 0.75 mass % in polyethylene glycol 400 (combination 1:2), 0.1 mL once a day for 5 days from 3 days after inoculation; culture on 5th day after last application; 10 loci. The method, then:
Amorolfine hydrochloride and each specimen (hereinafter referred to as “medicine”) at a mass ratio of 1:2 were dissolved in polyethylene glycol 400 to obtain a final concentration of 0.75% mass ratio. Each of amorolfine hydrochloride and the medicines was separately dissolved in polyethylene glycol 400 to obtain solutions having the final concentration of 0.75 mass %.
Male Hartley guinea pigs (Japan SLC Co., Ltd.; 6 weeks) were used. In the course of the test, they were kept separately from one another in an isolator (Negative rack, CLEA JAPAN, Inc.). They could freely have a solid food (G standard, Nihon Nosan Kogyo KK) and water.
Trichophyton mentagrophytes TIMM 1189 was cultured on slant Sabouraud glucose agar medium at 27° C. for 14 days. Then, sterilized saline containing 0.05% of Tween 80 was added thereto to obtain conidia. The resultant suspension was filtered through a cell strainer (FALCON Co., Ltd.) to remove large mycelian masses. The number of conidia was counted with hemocytometer. The conidia were diluted to 4×10^7/mL with sterilized saline containing 0.05% of Tween 80 to obtain the conidial suspension for inoculation.
The back of each guinea pig was shaved. Then, a circular inoculation part having a diameter of 2 cm was positioned on both sides of the spinal column. A gummed tape was applied thereto and then peeled. These steps was repeated three times, whereby the hair was pulled out of the skin in both parts and, at the same time, the top of the corneous layer of the skin was peeled off. The remaining hair was completely removed with tweezers. […]
When at least one of the 10 small pieces taken from one inoculated locus of the skin was the positive after the culture, the inoculated locus was judged to be positive. The ratio of positive loci after culture was calculated from the number of the cultured positive pieces in the total 10 inoculated loci in each experiment group.
The number of the cultured positive small pieces in the inoculated portion was scored as will be described below to determine the infection. […]

Another series has as its system Candida. The following applies: cited from earlier work.
For series [7] the following is noted: rabbit, in vivo; cited from earlier work.
The conditions of series [8]: in vivo; cited from earlier work.
Setting [9] is: Test Example 2, geometric mean MIC of two strains, cultured 7 days.

What is called LD50 is the dose expected to kill half of the subjects tested.

Like-named read-outs stand apart in the source and are kept apart here.

Take `CCC(C)(C)c1ccc(CC(C)CN2CC(C)OC(C)C2)cc1.Cl` (racemic) [amorolfine hydrochloride, (±)-cis-2,6-dimethyl-4-[3-[4-(1,1-dimethylpropyl)phenyl]-2-methylpropyl]-morpholine monohydrochloride]: the LD50 in [1] (mice, intraperitoneal injection, female) is given as 239 mg/kg; in [1] (mice, intraperitoneal injection, male) it was 205 mg/kg; in series [1] (mice, intravenous injection, female), 112 mg/kg; in series [1] (mice, intravenous injection, male), 141 mg/kg; in [1] (mice, oral, female), 2406 mg/kg; in series [1] (mice, oral, male), 2514 mg/kg. Further, the LD50 is given as above 5000 mg/kg in series [1] (mice, subcutaneous, male and female); above 1000 mg/kg in [2] (dogs, oral, male and female); above 2500 mg/kg in series [2] (dogs, subcutaneous, male); 465 mg/kg in [3] (rats, intraperitoneal injection, female); 468 mg/kg in [3] (rats, intraperitoneal injection, male); 1756 mg/kg in series [3] (rats, oral, female). For the same compound, the LD50 in [3] (rats, oral, male) was 1960 mg/kg; in [3] (rats, subcutaneous, male and female) it was above 2000 mg/kg. Further, the MIC in the series with Candida albicans turned out to be 1 µg/mL; in series [5], 0.031 µg/mL; with Trichophyton rubrum, 0.016 µg/mL. For the same compound, in [4], the “dose with an influence on the survival rate of newborn babies” value was “at least 10 mg/kg/day”. Further, in series [6], the “rate of positive loci after culture” value stood at 100%.

With `Cc1cc(C2CCCCC2)n(O)c(=O)c1.NCCO` [Ciclopyrox olamine], the “FIC index obtained by the combination of amorolfine hydrochloride with another medicine” value (from here on “FIC index obtained by the combination”) with Candida albicans (cultured 2 days) came out at 0.38; in series [5] (cultured 7 days), 1.0; in the series on Trichophyton rubrum (cultured 7 days), 1.0.

`N#C/C(=C1/SCC(c2ccccc2Cl)S1)n1ccnc1` (centres unmarked) [Lanoconazole]: the “FIC index obtained by the combination” value with Candida albicans (cultured 2 days) is recorded as 0.53; in series [5] (cultured 7 days) it was 1.00; in the series on Trichophyton rubrum (cultured 7 days), 1.25.

In the case of `Cc1cccc(N(C)C(=S)Oc2ccc3ccccc3c2)c1` [Tolnaftate], the “FIC index obtained by the combination” value in the series on Candida albicans (cultured 2 days) is 0.38; in [5] (cultured 7 days), 1.25; in the series on Trichophyton rubrum (cultured 7 days), 0.35.

Take `CN(Cc1ccc(C(C)(C)C)cc1)Cc1cccc2ccccc12.Cl` [butenafine hydrochloride, N-4-tert-butylbenzyl-N-methyl-1-naphthalenemethylamine hydrochloride]: the “antifungal effect on Candida” value in the series on Candida is recorded as “ineffective”. In addition, the localized irritation result in series [7] is recorded as “weak”. Besides, the LD50 in series [1] (ICR male and female mice, intravenous injection) is listed as above 140 mg/kg; in [1] (ICR male and female mice, oral), above 5000 mg/kg; in [1] (ICR male and female mice, percutaneous) it was above 800 mg/kg; in series [1] (ICR male and female mice, subcutaneous) it was above 200 mg/kg; in [2] (Beagle dogs, male, oral), above 5000 mg/kg; in [2] (Beagle dogs, male, percutaneous) it was above 100 mg/kg. Besides, the LD50 is at least 100 mg/kg in series [3] (Wistar rats, intravenous injection, female); above 100 mg/kg in series [3] (Wistar rats, intravenous injection, male); above 4000 mg/kg in series [3] (Wistar rats, oral, male and female); above 1000 mg/kg in [3] (Wistar rats, percutaneous, male and female); above 150 mg/kg in series [3] (Wistar rats, subcutaneous, male and female). Besides, the MIC was above 8 µg/mL with Candida albicans (Test Example 2, geometric mean MIC of two strains, cultured 2 days); 0.016 µg/mL in series [5] (setting [9]); 0.004 µg/mL in the series on Trichophyton rubrum (setting [9]). In addition, the “FIC index obtained by the combination” value was found to be 0.38 in the series on Candida albicans (cultured 2 days), 0.49 in series [5] (cultured 7 days) and 0.38 in the series with Trichophyton rubrum (cultured 7 days). Further, the “Minimum inhibitory concentration (MIC)” value in the series with Candida albicans (Test Example 2, geometric mean MIC of two strains, cultured 2 days, listed as B, hydrochloride) is above 8.0 µg/mL. Also, the “toxicity on the reproduction or development” value in series [8] was “No toxicity was found”. Further, the “rate of positive loci after culture” value in series [6] was 100%.

The values are drawn from patent US20050113371A1, “Antifungal agent for topical use” (priority 2002, published 2005).
